Earlier results in patent US20180036237A1, “OIL/SURFACTANT MIXTURES FOR SELF-EMULSIFICATION” (priority 2015, published 2018).

Conditions: single surfactant

Substance: polyoxyethylene cetostearyl ether
- HLB: 13.5
